SMILES strings stand for the structures. Some results are limits rather than exact numbers.

The term melting point denotes the temperature of the solid-liquid transition.

Consider `Clc1ccc2onc(Cl)c2c1`, for which the melting point lay in the range of 43 to 44 °C.
The result for `CN(C)/C=c1\c2ccccc2c2[nH]c(=O)c3nccn3c12` reads 293 °C; that for `Nc1nc(N)c2cc(S(=O)(=O)c3ccc4ccccc4c3)ccc2n1`, 300 to 302 °C; that for `Cc1noc(C)c1S(=O)(=O)n1cnc2cnccc21`, 130 to 135 °C.
The figure for `O=[N+]([O-])c1ccc2c(c1)C(N1CCCC1)C(O)CC2` (stereo unspecified) is 77 °C; for `COc1ccc(CN2C(=O)C(C)(c3cc(N(S(C)(=O)=O)S(C)(=O)=O)ccc3Cl)c3cc(Cl)ccc32)c(OC)c1` (stereo unspecified) it is 159 °C; for `O=C(c1ccc(Cl)cc1)c1noc(CS(=O)c2ccccc2)n1` (stereo unspecified) it is 93 to 95 °C.
The figure for `CN1CCN(c2cc3c(cc2F)c(=O)c(C(=O)O)cn3C2CSC2)CC1` is 231 to 237 °C; for `Cc1cc(=O)n(C)c2ccc(OCCCN3CCC(NC(=O)c4ccccc4)CC3)cc12` it is 188 to 190 °C.
`CS(=O)(=O)c1ccc(C2=C(c3ccc(C#N)cc3)CCC2)cc1` registered a melting point of 163 to 164 °C.
`O=C(Nc1ccc2ccc(Oc3ccccc3)nc2n1)c1ccsc1` came in with a melting point of 95 °C.
Consider `Cc1sc(Nc2cccc(I)n2)nc1-c1cn[nH]c1`, for which the melting point is greater than 260 °C.
The figure for `C=CCO/N=C(\C(=O)OC)c1csc(NC(c2ccccc2)(c2ccccc2)c2ccccc2)n1` is 115 to 116 °C; for `Cc1c(NC(=O)c2ccc(OC[C@@H]3CCCO3)cc2F)ccc2c1cc(CNCC1CCOCC1)n2C` it is 149 °C.
The result for `CCOC(=O)C1CCc2cc3ccccc3n2C1=O` (stereo unspecified) reads 82 to 84 °C; that for `CC(C)(C)C(O)C(=CC1CCCCC1)n1cncn1` (stereo unspecified), 145 to 148 °C.
As for `CN(CCOc1ccccc1)[C@H]1CC[C@H](c2ccc(O)cc2)CC1`, the melting point lay in the range of 90 to 92 °C.
With `O=S(=O)(c1ccc(Cl)s1)N(CCO)CCO`, the melting point is 69 °C.
The result for `CC1=C(C(=O)OCOC(=O)C(C)(C)C)C(C)C(C(=O)OCOC(=O)C(C)(C)C)=C(C)N1` reads 82 to 83 °C; that for `FC(F)(F)c1ccc2[nH]nc(-c3ccccc3)c2c1`, 152 °C.
The result for `COC(=O)c1c[nH]c(C=O)c1` reads 97 to 99 °C; that for `CCCC(=CC(N)C(=O)O)CP(=O)(O)O` (stereo unspecified), 193 °C.
The result for `OCC1OC(n2cnc3c(NC4CCCCC4O)ncnc32)C(O)C1O` (stereo unspecified) reads 210 to 211 °C.
`CC(C)CC(SCC1CCCCC1)c1c(O)cc(-c2ccccc2)oc1=O` (stereo unspecified) returned a melting point of 146 to 148 °C.
`CCOc1ccc(CN2CCc3cc(O)ccc3C2)cc1OCC` came in with a melting point of 150 to 154 °C.
The result for `Cc1cc2c(cc1C#N)C(c1ccccn1)=CC(C)(C)CO2` reads 171 °C; that for `CCC(=O)c1ccc(CCNS(=O)(=O)c2ccccc2)cc1`, 116 °C; that for `CC(=O)c1nnc(-c2ccc3occ(-c4cccc(OC(F)(F)F)c4)c3c2)o1`, 64 to 65 °C.
`C=C(C)c1cc(Br)c(Oc2nc(C)nc3c2nnn3C(CCC)CCC)c(OC)c1` had a melting point of 110 to 115 °C.
In turn, `COc1cc(-c2cccc(C=C3SC(N4CCOCC4)=NC3=O)c2)cc(C23CC4CC(CC(C4)C2)C3)c1` yielded a melting point of 234 to 238 °C.
The figure for `CNc1ccc(-c2c[nH]cn2)cc1` is 75 to 76 °C.
The figure for `Cc1cc(Nc2ccc(F)cc2)nc(Nc2ccc(S(=O)(=O)N(C)C3CCN(Cc4nccs4)CC3)cc2)n1` is 220 °C.
The result for `Nc1nc(-c2cc(Cl)ccc2Cl)nc(N2CCNC(=O)C2)n1` reads greater than 275 °C; that for `COc1ccc(N2c3ccccc3CCC2c2ccccc2)cc1` (stereo unspecified), 88 to 90 °C.
As to `Oc1ccc2c(-c3noc4cc(O)ccc34)cccc2c1`, the melting point was 268 to 288 °C.
The figure for `COc1ccc(CNC(=O)c2nccnc2N)cc1` is 93 to 95 °C; for `COc1c(-c2ccc3cc(NS(C)(=O)=O)ccc3c2)cc(-c2ccc[nH]c2=O)cc1C(C)(C)C` it is greater than 300 °C.
The result for `CC(=O)Oc1ccccc1C(=O)N1CC(O)C[C@H]1C(=O)O` (stereo partly specified) reads 175 °C; that for `CN(C)c1nc2c(N)cc(Br)cc2n1C`, 137 °C; that for `O=c1[nH]ncc(N2CCN(Cc3ccccc3)CC2)c1Cl`, 173 to 175 °C.
The result for `CCOC(=O)c1[nH]c(C)c(-c2ccc(F)cc2)c1C` reads 174 to 175 °C; that for `CC(C)(CNc1ccnc2cc(Cl)ccc12)NCc1ccc(C(F)(F)F)cc1`, 145 to 147 °C.
The compound `CCCn1c(=O)[nH]c(=O)c2nc(-c3ccc(/C=C/C(=O)O)cc3)[nH]c21` returned a melting point greater than 300 °C.
The result for `COc1cc2[nH]c(=O)n(CC(C)S)c(=O)c2cc1OC` (stereo unspecified) reads 262 to 264 °C.
The figure for `CC(C)c1cc(C=C2NC(=S)NC2=O)cc(C(C)C)c1O` is 225 to 230 °C; for `CC(C)Cc1ccccc1Sc1c(O)cc(-c2cccc(-c3ccccc3)c2)oc1=O` it is 187 to 188 °C.
The result for `CCN(CC)Cc1cnc2cc(NC(=O)c3ccc(-c4ccc(F)cc4)cc3)c(C)cc2c1` reads 145 to 148 °C; that for `Cc1ccccc1Sc1cccc(C=O)c1O`, 42 to 43 °C.
`O=[N+]([O-])c1ccc(C23CCN(CC2)CC3)cc1`: the melting point lay in the range of 130 to 135 °C.
The figure for `O=C(NN=Cc1ccc(Cl)cc1)c1[nH]c2ccccc2c1Cc1ccccc1` is 221 to 222 °C; for `Cc1ccc(C(Br)C(Br)C(=O)c2ccccc2)cc1` (stereo unspecified) it is 84 °C; for `CN(Cc1ccc(NC(=O)C2=Cc3cc(-c4ccc(-n5ccnc5)cc4)ccc3OCC2)cc1)C1CCOCC1` it is 194 to 195 °C.
The result for `C=CCOc1ccc(C[C@@H](NC(C)=O)C(=O)OC)cc1` reads 90 °C.
For the compound `CCN(CCc1c[nH]c2ccccc12)C(=O)CCCC(=O)OC`, the melting point fell in the range of 73 to 75 °C.
The result for `CCCC[C@]1(CC)CS(=O)(=O)c2cc(O)c(O)cc2[C@@H](c2ccccc2)N1` reads 117 to 118 °C; that for `COc1ccc2c(c1)c(C=C1SC(=N)NC1=O)c(C)n2C(=O)c1ccc(Cl)cc1`, 269 to 270 °C.
The compound `Cc1[nH]c(=O)c(C#N)cc1-c1ccc(S(C)(=O)=O)cc1` gave a melting point of 312 to 313 °C.
The result for `COc1ccc(C(c2ccc(OC)cc2)c2cnccc2C(=O)O)cc1` reads 122 to 124 °C; that for `COc1ccc(-c2cc(C(=O)C(F)(F)F)[nH]c2-c2ccc(OC)cc2)cc1`, 185 to 186 °C.
The result for `COC(=O)c1ccc2cc(C=O)ccc2c1` reads 127 °C; that for `Cn1cnc(COc2nc3c(-c4ccccc4F)nncn3c2-c2ccccc2)n1`, 186 °C.
As for `Fc1ccc2sc(CCl)nc2c1`, the melting point is 99 to 101 °C.
As to `CCOC(=O)CC(=O)c1cc(F)c(N2CCC(N)C2)nc1Nc1ccc(F)cc1F` (stereo unspecified), the melting point fell in the range of 140 to 142 °C.
The figure for `CC(C)(C)c1cc(CCc2ccccc2NC(=O)NC2CCCC2)cc(C(C)(C)C)c1O` is 186 to 187 °C; for `O=C(CC(=O)C1CC1)c1ncc(Cl)cc1Cl` it is 50.2 to 52.7 °C.
The figure for `O=C(Nc1ccc(Cc2nnn[nH]2)cc1)C(F)(F)C(F)(F)C(F)(F)C(F)(F)F` is 173 to 174 °C; for `CC(C)N(c1ccc(C#N)cc1[N+](=O)[O-])S(=O)(=O)c1ccc(Cl)cc1` it is 168 °C.
`O=C(CC1c2ccccc2S(=O)(=O)C1c1ccccc1)NO` (stereo unspecified) displayed a melting point of 113 to 114 °C.
The result for `Nc1ccccc1C(=O)Nc1cc2c(cc1F)OCC(=O)N2` reads 251 to 252 °C; that for `CNC(=NCCS(=O)Cc1nccs1)NC#N` (stereo unspecified), 110 °C; that for `Cc1c(Cl)nn(-c2ccc(Cl)cc2)c1Cl`, 90 to 91.5 °C.
As to `O=C(O)Cc1ccc(-c2ccc(C(F)(F)F)cc2)cc1`, the melting point was in the range of 158 to 160 °C.
`CC(=O)N1CCN(c2nc(Nc3ccc(F)cc3F)c(C(=O)O)cc2F)CC1`: the melting point lay in the range of 243 to 244 °C.
The result for `CCOC(=O)c1ccc(COCc2csc3nc(C(=O)NCc4cccc(N(C)C(=O)C(F)(F)F)c4)[nH]c(=O)c23)cc1` reads 208 to 209 °C; that for `CCCCN1C(=O)CSC(=NO)C1C` (stereo unspecified), 118 to 120 °C.
Regarding `O=C(NS(=O)(=O)c1ccccc1C(=O)OC1COC1)Oc1ccccc1`, the melting point was 91 to 92 °C.
Take `Cc1cccc2c(-c3ccc(C(F)(F)F)cc3)onc12`: the melting point was in the range of 118 to 119 °C.
The figure for `CCCCc1nn(-c2cc(NC(=O)COCC)ccc2Cl)c(=O)n1Cc1ccc(-c2ccccc2S(=O)(=O)NC(=O)OC(C)(C)C)cc1F` is 100 to 102 °C.
The result for `CSC(=S)Nc1ccccc1N` reads 114 °C; that for `COC(=O)C1CN(Cc2ccccc2)c2ccccc2CN1S(=O)(=O)c1ccc(OC)cc1` (stereo unspecified), 120 to 122 °C; that for `Cc1ccc2[nH]c3c(c2c1)C(C(=O)O)CCC3` (stereo unspecified), 194 to 197 °C.
For the compound `COc1cc2nc(SCc3nccc(N(C)C)c3F)[nH]c2cc1OC`, the melting point was 142 to 144 °C.
Compound `COC(=O)c1cccc2[nH]c(-c3ccc(Cl)cc3)cc12` came in with a melting point of 150 to 152 °C.
For the compound `CN1Cc2ccc(Cl)c3scc(c23)S1(=O)=O`, the melting point was 146 °C.
Consider `CCCCc1nc2ccc(O)cc2c(=O)n1Cc1ccc(-c2ccccc2-c2nnnn2COC)cc1`, for which the melting point was 157 to 159 °C.
The result for `COCCNC(=O)c1cccc(-c2ccc3c(c2)C(c2cc(Cl)ccc2Cl)CC3)c1` (stereo unspecified) reads 116 °C.
As for `CCCN1C(=O)N(c2ccc([N+](=O)[O-])c(C(F)(F)F)c2)C(=O)C1(C)C`, the melting point was found to be 102 °C.
The result for `CN(C)C1CC2=CNC=C3C=C(C=O)OCC1=C32` (stereo unspecified) reads 175 to 176 °C; that for `CCCNc1nc(=O)n(CC2CC2)c2nc(C(C)C)[nH]c12`, 208 to 210 °C.
The figure for `O=C1c2ccccc2S(=O)(=O)N1CCCCOc1ccccc1` is 92 to 94 °C.
In turn, `Cc1cc(OC(=O)C(C)(C)C)cc(C)c1O` showed a melting point of 92 to 94 °C.
